Assay results reported in patent publication US20210388320A1, “DIFFERENTIATION-INDUCED CELL POPULATION FROM WHICH […] CELLS HAVE BEEN REMOVED, USE OF SAME, AND METHOD FOR PRODUCING SAME” (priority 2014, published 2021).

Assays:
[1] = test system: TRA-1-60 positive cells in iPS-CM derived from human iPS cell strain MYH-GIP4; experiment: TRA-1-60 positive rate in iPS-CM treated with JQ1 (Example 7); format: cell-based
Method: After differentiation of undifferentiated pluripotent stem cells is induced, a cell dissociation reagent, such as Accutase, is applied to about 1×10^5 to 5×10^5 differentiated cells at 37° C. for 5 minutes, and differentiated cells are dissociated and collected by centrifugation. The differentiated cells are suspended in […] of PBS, and an anti-human TRA-1-60 antibody and an isotype control antibody, both of which are fluorescently labeled, are each added. Then, the resultants are each reacted at 4° C. for 20 minutes in a dark place. After the differentiated cells are washed with PBS and collected by centrifugation, they are each suspended in […] of PBS, passed through a cell strainer, and then collected in FACS tubes. In flow cytometry, fluorescent emission is detected by a detector corresponding to labeled fluorescence, and quantified. Fractions stained with the isotype control antibody are defined as negative fractions, whereas fractions with a higher fluorescence intensity are defined as positive fractions. Among fractions stained with the anti-human TRA-1-60 antibody, the ratio belonging to the positive fractions is expressed as a percentage.
iPS-CM derived from human iPS cell strain MYH-GIP4 was seeded in a 12-well plate (cell density: 90% confluency). […] Thereafter, the TRA-1-60 positive rate was quantified 96 hours after addition. […]

[2] = test system: human iPS cell strain 253G1; experiment: Cell proliferation assay (CCK-8 assay) with JQ1 (Example 6); format: cell-based; settings: 0.2 μM or more of JQ1, 96 hours later
Method: Human iPS cell strain 253G1 was seeded in a 12-well plate (cell density: 20% confluency).
Thereafter, cell proliferation assay was performed 96 hours after addition (FIG. 10).

[3] = test system: human iPS cell strain 253G1; experiment: Microscope observation and crystal violet staining after JQ1 addition (Example 5); format: cell-based; settings: 0.2 μM or more of JQ1, 96 hours later
Method: (§1) Human iPS cell strain 253G1 was seeded in a 12-well plate (cell density: 20% confluency). Human fibroblasts (NHDF) were seeded in a 12-well plate (cell density: 50% confluency).
(§2) Thereafter, microscope observation was performed 96 hours later, and crystal violet staining was carried out to visualize the cells (FIG. 9).

[4] = test system: normal human dermal fibroblasts (NHDF); experiment: as above; format: cell-based; settings: JQ1 up to 10 μM, 96 hours
Method: as §1, §2

NHDF [5] = experiment: Cell proliferation assay (CCK-8 assay) with BV (Example 2); format: cell-based, human; settings: 0-50 μg/ml BV, 24-72 hours
Method: (§3) In order to clarify how the number of human iPS cells changed with various BV concentrations and BV treatment times, BV was added in vitro to human iPS cells, cell proliferation assay (CCK-8 assay), which reflects the number of cells, was performed, and viable cells were evaluated quantitatively.
Three human iPS cell strains (1231A3, MYH-GIP4, and 253G1) and NHDF were each seeded in a 12-well plate (cell density: 20% confluency). However, the cell density of NHDF was set to 50% confluency.
Forty-eight hours after seeding, 0, 5, 25, and 50 μg/ml of BV was added to each well (the agent-containing medium was exchanged every 24 hours). Thereafter, cell proliferation assay was performed 24 hours, 48 hours, and 72 hours after addition.

[6] = test system: normal human dermal fibroblasts (NHDF); experiment: Microscope observation of cell death after BV addition, normal fibroblasts (Example 1); format: cell-based; settings: 5 μg/ml BV, 72 hours after addition
Method: Similarly, in order to examine the influence of BV on normal human dermal fibroblasts (NHDF), the same experiment as in Example 1 was conducted.
Human fibroblasts (NHDF) were seeded in a 12-well plate (cell density: 50% confluency). Forty-eight hours after seeding, 0, 0.05, and 5 μg/ml of BV was added to each well (the agent-containing medium was exchanged every 24 hours). Thereafter, microscope observation was performed every 24 hours.

NHDF [7] = experiment: Cell proliferation assay (CCK-8 assay) with BV (Example 3); format: cell-based, human; settings: 0.1-50 μg/ml BV, 72 hours
Method: as §3
(§4) Three human iPS cell strains (253G1, MYH-GIP4, and 201B7) and NHDF were each seeded in a 12-well plate (cell density: 20% confluency). However, the cell density of NHDF was set to 50% confluency.
(§5) Forty-eight hours after seeding, 0, 0.1, 0.25, 0.5, 1, 2.5, 5,10, 25, and 50 μg/ml of BV was added to each well (the agent-containing medium was exchanged every 24 hours). Thereafter, cell proliferation assay was performed 72 hours after addition.

[8] = test system: human iPS cell strains (253G1, MYH-GIP4, and 201B7); experiment: as above; format: cell-based; settings: 72 hours after treatment with 50 μg/ml BV, all the human iPS cells
Method: as §3, §4, §5

[9] = test system: Lin28 expression in iPS-CM derived from human iPS cell strain 253G1; experiment: Lin28 expression by quantitative PCR in iPS-CM treated with BV (Example 4); format: cell-based
Method: This method is targeted for human iPS cell-derived cardiomyocytes (iPS-CM). iPS-CM is considered to contain tumorigenic undifferentiated cells, in addition to cardiomyocytes.
The method for inducing differentiation into cardiomyocytes was performed according to the following document: Matsuura K, et al. Creation of human cardiac cell sheets using pluripotent stem cells. Biochem Biophys Res Commun, 2012, and 425(2) pp. 321-7. iPS-CM derived from human iPS cell strain 253G1 was seeded in a 12-well plate (cell density: 90% confluency). Forty-eight hours after seeding, 0, 5, and 10 μg/ml of BV was added to each well (the agent-containing medium was exchanged every 24 hours). Thereafter, mRNA was extracted 72 hours and 96 hours after addition. Lin28 expression levels were quantified by quantitative PCR.

[10] = test system: Human iPS cell strain MYH-GIP4; experiment: Microscope observation of cell death after BV addition (Example 1); format: cell-based; settings: 5 μg/ml BV, 48 to 72 hours later
Method: Human iPS cell strain MYH-GIP4 was seeded in a 12-well plate (cell density: 20% confluency). Forty-eight hours after seeding, 0, 0.05, and 5 μg/ml of an anti-CD30 antibody-binding agent (general name: Brentuximab vedotin, abbreviated as “BV”) (trade name: Adcetris (registered trademark)) was added to each well (the agent-containing medium was exchanged every 24 hours). Thereafter, microscope observation was performed every 24 hours. Since Adcetris (registered trademark) contains additives, in addition to BV, numerical values converted from the net weight of BV were described (i.e., “0, 0.05, and 5 μg/ml as BY”).

Compound	TRA-1-60 positive rate ([1]; 1 μM JQ1, 96 hours after addition) [%]	TRA-1-60 positive rate ([1]; 5 μM JQ1, 96 hours after addition) [%]	cell proliferation rate [2] [%]	cell death (microscope observation, crystal violet staining) [3]	cell death (microscope observation, crystal violet staining) [4]	effect of BV on number of cells (NHDF [5])	induction of cell death (macroscopic observation) [6]	effect of BV on cell proliferation (NHDF [7])	cell proliferation [8] [%]	expression of undifferentiated marker Lin28, of the control group (BV: 0 μg/ml) ([9]; 72-hour treatment, BV 5 and 10 μg/ml)	Lin28 expression level, pure human iPS cells regarded as 100% ([9]; 72nd hour, BV-added groups)	cell death (microscope observation) [10]
Cc1sc2c(c1C)C(c1ccc(Cl)cc1)=N[C@@H](CC(=O)OC(C)(C)C)c1nnc(C)n1-2 [JQ1]	0.2	0.1	≤ 10	complete cell death was induced	cell death was not observed	–	–	–	–	–	–	–
Brentuximab vedotin [BV]	–	–	–	–	–	hardly affected	induction of cell death was not observed macroscopically	hardly affected	≤ 20	about 50%	about 0.3%	cell death was partially induced
